Measurements taken from US20240116985A1, “STAPLED PEPTIDES AND METHODS THEREOF” (priority 2020, published 2024).

Assay: CHI Log D procedure
Type: physicochemical

## CC(=O)N1CCC[C@]12CC=CCCCC1(CCCC=CCCCCCC[C@@](C)(C(=O)N[C@@H](Cc3ccccc3)C(=O)N[C@@H](Cc3c[nH]c4ccccc34)C(=O)N[C@@H](CCC(N)=O)C(N)=O)NC(=O)[C@H](C(C)C)NC(=O)[C@H](Cc3ccccc3)NC(=O)[C@H](C)NC(=O)[C@H](C)NC(=O)[C@H](CC(=O)O)NC(=O)[C@H](CCC(=O)O)NC1=O)NC(=O)[C@H](C)NC(=O)[C@H](CC(=O)O)NC2=O (stereo partly drawn) [I-281, Ac-PL3-Asp-Ala-B5-Glu-Asp-Ala-Ala-Phe-Val-S8-Phe-Trp-Gln-NH2]
pH 7.4
  CHI Log D: 2.2

## CC(=O)N1CCC[C@]12CC=CCCCC1(CCCC=CCCCCCC[C@@](C)(C(=O)N[C@@H](Cc3ccccc3)C(=O)N[C@@H](Cc3c[nH]c4ccccc34)C(=O)N[C@@H](CCC(N)=O)C(N)=O)NC(=O)[C@H](C(C)C)NC(=O)[C@H](Cc3ccccc3)NC(=O)[C@H](C)NC(=O)[C@H](C)NC(=O)[C@H](CC(=O)O)NC(=O)[C@H](CCC(=O)O)NC1=O)NC(=O)[C@H](C)NC(=O)[C@H](CC(=O)O)NC2=O (stereo partly drawn) [I-282, Ac-PL3-Asp-Ala-B5-Glu-Asp-Ala-Ala-Phe-Val-S8-Phe-Trp-Gln-NH2]
pH 7.4
  CHI Log D: 2.224

## CC(=O)N1CCC[C@]12CC=CCCCC1(CCCC=CCCCCCC[C@@](C)(C(=O)N[C@@H](Cc3ccccc3)C(=O)N[C@@H](Cc3csc4ccccc34)C(=O)N[C@@H](CCC(N)=O)C(N)=O)NC(=O)[C@H](C(C)C)NC(=O)[C@H](Cc3ccccc3)NC(=O)[C@H](C)NC(=O)[C@H](C)NC(=O)[C@H](Cc3ccc4ccccc4n3)NC(=O)[C@H](CC(=O)O)NC1=O)NC(=O)[C@H](C)NC(=O)[C@H](CC(=O)O)NC2=O (stereo partly drawn) [I-300, Ac-PL3-Asp-Ala-B5-Asp-Qui-Ala-Ala-Phe-Val-S8-Phe-BztA-Gln-NH2]
pH 7.4, CHI Log D
  chromatographic logD: 2.82

## CC(=O)N1CCC[C@]12CC=CCCCC1(CCCC=CCCCCCC[C@@](C)(C(=O)N[C@@H](Cc3ccccc3)C(=O)N[C@@H](Cc3csc4ccccc34)C(=O)N[C@@H](CCC(N)=O)C(N)=O)NC(=O)[C@H](C(C)C)NC(=O)[C@H](Cc3ccccc3)NC(=O)[C@H](C)NC(=O)[C@H](C)NC(=O)[C@H](CCc3ccccc3)NC(=O)[C@H](CC(=O)O)NC1=O)NC(=O)[C@H](C)NC(=O)[C@H](CC(=O)O)NC2=O (stereo partly drawn) [I-301, Ac-PL3-Asp-Ala-B5-Asp-hPhe-Ala-Ala-Phe-Val-S8-Phe-BztA-Gln-NH2]
pH 7.4, CHI Log D
  chromatographic logD: 3.26

## CC(=O)N1CCC[C@]12CC=CCCCC1(CCCC=CCCCCCC[C@@](C)(C(=O)N[C@@H](Cc3c(F)c(F)c(F)c(F)c3F)C(=O)N[C@@H](Cc3csc4ccccc34)C(=O)N[C@@H](CCC(N)=O)C(N)=O)NC(=O)[C@H](C(C)C)NC(=O)[C@H](Cc3ccccc3)NC(=O)[C@H](C)NC(=O)[C@H](C)NC(=O)[C@H](CC(=O)O)NC(=O)[C@H](CC(=O)O)NC1=O)NC(=O)[C@H](C)NC(=O)[C@H](CC(=O)O)NC2=O (stereo partly drawn) [I-302, Ac-PL3-Asp-Ala-B5-Asp-Asp-Ala-Ala-Phe-Val-S8-pff-BztA-Gln-NH2]
pH 7.4, CHI Log D
  chromatographic logD: 2.38

## CC(=O)N1CCC[C@]12CC=CCCCC1(CCCC=CCCCCCC[C@@](C)(C(=O)N[C@@H](Cc3ccccc3)C(=O)N[C@@H](Cc3c[nH]c4ccccc34)C(=O)N[C@@H](CCC(N)=O)C(N)=O)NC(=O)[C@H](C(C)C)NC(=O)[C@H](Cc3ccccc3)NC(=O)[C@H](C)NC(=O)[C@H](C)NC(=O)[C@H](C(c3ccccc3)c3ccccc3)NC(=O)[C@H](CC(=O)O)NC1=O)NC(=O)[C@H](C)NC(=O)[C@H](CC(=O)O)NC2=O (stereo partly drawn) [I-303, Ac-PL3-Asp-Ala-B5-Asp-DipA-Ala-Ala-Phe-Val-S8-Phe-Trp-Gln-NH2]
pH 7.4, CHI Log D
  chromatographic logD: 3.13

## CC(=O)N1CCC[C@]12CC=CCCCC1(CCCC=CCCCCCC[C@@](C)(C(=O)N[C@@H](Cc3ccccc3)C(=O)N[C@@H](Cc3c[nH]c4ccccc34)C(=O)N[C@@H](CCC(N)=O)C(N)=O)NC(=O)[C@H](C(C)C)NC(=O)[C@H](Cc3ccccc3)NC(=O)[C@H](C)NC(=O)[C@H](C)NC(=O)[C@H](Cc3c[nH]cn3)NC(=O)[C@H](CC(=O)O)NC1=O)NC(=O)[C@H](C)NC(=O)[C@H](CC(=O)O)NC2=O (stereo partly drawn) [I-304, Ac-PL3-Asp-Ala-B5-Asp-His-Ala-Ala-Phe-Val-S8-Phe-Trp-Gln-NH2]
pH 7.4
  CHI Log D: 2.339

## CC(=O)N1CCC[C@]12CC=CCCCC1(CCCC=CCCCCCC[C@@](C)(C(=O)N[C@@H](Cc3ccccc3)C(=O)N[C@@H](Cc3c[nH]c4ccccc34)C(=O)N[C@@H](CCC(N)=O)C(N)=O)NC(=O)[C@H](C(C)C)NC(=O)[C@H](Cc3cccc(Cl)c3)NC(=O)[C@H](C)NC(=O)[C@H](C)NC(=O)[C@H](CC(=O)O)NC(=O)[C@H](CC(=O)O)NC1=O)NC(=O)[C@H](C)NC(=O)[C@H](CC(=O)O)NC2=O (stereo partly drawn) [I-306, Ac-PL3-Asp-Ala-B5-Asp-Asp-Ala-Ala-3C1F-Val-S8-Phe-Trp-Gln-NH2]
pH 7.4
  CHI Log D: 2.03

## CC(=O)N1CCC[C@]12CC=CCCCC1(CCCC=CCCCCCC[C@@](C)(C(=O)N[C@@H](Cc3ccccc3)C(=O)N[C@@H](Cc3c[nH]c4ccccc34)C(=O)N[C@@H](CCC(N)=O)C(N)=O)NC(=O)[C@H](C(C)C)NC(=O)[C@H](Cc3ccc(Cl)cc3)NC(=O)[C@H](C)NC(=O)[C@H](C)NC(=O)[C@H](CC(=O)O)NC(=O)[C@H](CC(=O)O)NC1=O)NC(=O)[C@H](C)NC(=O)[C@H](CC(=O)O)NC2=O (stereo partly drawn) [I-308, Ac-PL3-Asp-Ala-B5-Asp-Asp-Ala-Ala-4C1F-Val-S8-Phe-Trp-Gln-NH2]
pH 7.4
  CHI Log D: 2.03

## CC(=O)N1CCC[C@]12CC=CCCCC1(CCCC=CCCCCCC[C@@](C)(C(=O)N[C@@H](Cc3ccccc3)C(=O)N[C@@H](Cc3c[nH]c4ccccc34)C(=O)N[C@@H](CO)C(N)=O)NC(=O)[C@H](CO)NC(=O)[C@H](Cc3ccccc3)NC(=O)[C@H](C)NC(=O)[C@H](C)NC(=O)[C@H](CC(=O)O)NC(=O)[C@H](CC(=O)O)NC1=O)NC(=O)[C@H](C)NC(=O)[C@H](CC(=O)O)NC2=O (stereo partly drawn) [I-333, Ac-PL3-Asp-Ala-B5-Asp-Asp-Ala-Ala-Phe-Ser-S8-Phe-WCHO-Ser-NH2]
pH 7.4, CHI Log D
  logD: 2.12

## CC[C@H](C)[C@@H]1NC(=O)[C@H](CC(=O)O)NC(=O)[C@]2(CC=CCCCC3(CCCC=CCCCCCC[C@@](C)(C(=O)N[C@@H](Cc4ccccc4)C(=O)N[C@@H](Cc4csc5ccccc45)C(=O)N[C@@H](CCC(N)=O)C(N)=O)NC(=O)[C@H](CCC(N)=O)NC(=O)[C@H](Cc4ccccc4)NC(=O)[C@H](C)NC(=O)[C@H](C)NC(=O)[C@H](CCC(=O)O)NC(=O)[C@H](CNS(=O)(=O)C(F)(F)F)NC3=O)NC1=O)CCCN2C(C)=O (stereo partly drawn) [I-630, Ac-PL3-Asp-Ile-B5-[Tf]Dap-Glu-Ala-Ala-Phe-Gln-S8-Phe-BztA-Gln-NH2]
pH 7.4
  CHI Log D: 4.36

## CC[C@H](C)[C@@H]1NC(=O)[C@H](CC(=O)O)NC(=O)[C@]2(CC=CCCCC3(CCCC=CCCCCCC[C@@](C)(C(=O)N[C@@H](Cc4ccccc4)C(=O)N[C@@H](Cc4csc5ccccc45)C(=O)N[C@@H](CCC(N)=O)C(N)=O)NC(=O)[C@H](CCC(N)=O)NC(=O)[C@H](Cc4ccccc4)NC(=O)[C@H](C)NC(=O)[C@H](C)NC(=O)[C@H](CCC(=O)O)NC(=O)[C@H](CNS(=O)(=O)C(F)(F)F)NC3=O)NC1=O)CCCN2C(C)=O (stereo partly drawn) [I-631, Ac-PL3-Asp-Ile-B5-[Tf]Dap-Glu-Ala-Ala-Phe-Gln-S8-Phe-BztA-Gln-NH2]
pH 7.4
  CHI Log D: 4.365

## CC[C@H](C)[C@@H]1NC(=O)C[C@H](CC(=O)O)NC(=O)[C@]2(CC=CCCCC3(CCCC=CCCCCCC[C@@](C)(C(=O)N[C@@H](Cc4ccccc4)C(=O)N[C@@H](Cc4csc5ccccc45)C(=O)N[C@@H](CCC(N)=O)C(N)=O)NC(=O)[C@H](CCC(N)=O)NC(=O)[C@H](Cc4ccccc4)NC(=O)[C@H](C)NC(=O)[C@H](C)NC(=O)[C@H](CCC(=O)O)NC(=O)[C@H](CC(=O)O)NC3=O)NC1=O)CCCN2C(C)=O (stereo partly drawn) [I-670, Ac-PL3-RbGlu-Ile-B5-Asp-Glu-Ala-Ala-Phe-Gln-S8-Phe-BztA-Gln-NH2]
pH 7.4
  CHI Log D: 2.16

## CC(=O)N1CCC[C@]12CC=CCCCC1(CCCC=CCCCOC(=O)N3CC[C@@](C(=O)N[C@@H](Cc4ccsc4)C(=O)N[C@@H](Cc4csc5ccccc45)C(=O)N[C@@H](CCC(N)=O)C(N)=O)(C3)NC(=O)[C@H](CC(N)=O)NC(=O)[C@H](Cc3ccccc3)NC(=O)[C@H](C)NC(=O)[C@H](C)NC(=O)[C@H](CC(=O)O)NC(=O)[C@H](CC(=O)O)NC1=O)NC(=O)[C@H](CC(C)(C)C)NC(=O)[C@H](CC(=O)O)NC2=O (stereo partly drawn) [I-687, Ac-PL3-Asp-Npg-B5-Asp-Asp-Ala-Ala-Phe-Asn-PyrS2-3Thi-BztA-Gln-NH2]
pH 7.4
  CHI Log D: 2.035
  logD: 2.0

## CC(=O)N1CCC[C@]12CC=CCCCC1(CCCC=CCCCCCC[C@@](C)(C(=O)N[C@@H](Cc3ccccc3)C(=O)N[C@@H](Cc3csc4ccccc34)C(=O)N(C)[C@@H](Cc3cnc[nH]3)C(N)=O)NC(=O)[C@H](CC(N)=O)NC(=O)[C@H](Cc3ccccc3)NC(=O)[C@H](C)NC(=O)[C@H](C)NC(=O)[C@H](CCC(=O)O)NC(=O)[C@H](CC(=O)O)NC1=O)NC(=O)[C@H](CC(C)C)NC(=O)[C@H](CC(=O)O)NC2=O (stereo partly drawn) [I-746, Ac-PL3-Asp-Leu-B5-Asp-Glu-Ala-Ala-Phe-Asn-S8-Phe-BztA-NMeHis-NH2]
pH 7.4
  CHI Log D: 2.372

## CC(=O)N1CCC[C@]12CC=CCCCC1(CCCC=CCCCCCC[C@@](C)(C(=O)N[C@@H](Cc3ccsc3)C(=O)N[C@@H](Cc3csc4ccccc34)C(=O)N[C@@H](CCC(N)=O)C(=O)N[C@H](C)C(=O)N[C@@H](C)C(=O)N[C@@H](C)C(N)=O)NC(=O)[C@H](CC(N)=O)NC(=O)[C@H](Cc3ccccc3)NC(=O)[C@H](C)NC(=O)[C@H](C)NC(=O)[C@H](CC(=O)O)NC(=O)[C@H](CC(=O)O)NC1=O)NC(=O)[C@H](CC(C)(C)C)NC(=O)[C@H](CC(=O)O)NC2=O (stereo partly drawn) [I-875, Ac-PL3-Asp-Npg-B5-Asp-Asp-Ala-Ala-Phe-Asn-S8-3Thi-BztA-Gln-dAla-Ala]
pH 7.4, CHI Log D
  logD: 2.21

## COCCOCCC(=O)NCCCC[C@@H]1NC(=O)[C@H](C)NC(=O)[C@H](CC(=O)O)NC(=O)[C@H](CC(=O)O)NC(=O)C2(CCCC=CCCCOC(=O)N3CC[C@@](C(=O)N[C@@H](Cc4ccsc4)C(=O)N[C@@H](Cc4csc5ccccc45)C(=O)N[C@@H](CCC(N)=O)C(N)=O)(C3)NC(=O)[C@H](CC(N)=O)NC(=O)[C@H](Cc3ccccc3)NC1=O)CCCC=CC[C@]1(CCCN1C(C)=O)C(=O)N[C@@H](CC(=O)O)C(=O)N[C@@H](CC(C)(C)C)C(=O)N2 (stereo partly drawn) [I-893, Ac-PL3-Asp-Npg-B5-Asp-Asp-Ala-[mPEG2]Lys-Phe-Asn-PyrS2-3Thi-BztA-Gln-NH2]
pH 7.4
  CHI Log D: 1.759
